Results from paper PMC6105497 (The FEBS journal, 2018).

Key:
[1] = biological target: vcFabH1 (Vibrio cholerae serotype O1, UniProt Q9KQH5); experiment: biochemical; format: biochemical; conditions: for Reaction rate relative to that of acetyl-CoA: pH 7.5
[2] = biological target: vcFabH2 (Vibrio cholerae serotype O1, UniProt Q9KLJ3); experiment: biochemical; format: biochemical
[3] = biological target: vcFabH2 (C356A) (Vibrio cholerae serotype O1, UniProt Q9KLJ3, C356A); format: binding
[4] = biological target: vcFabH2 (C113A) (Vibrio cholerae serotype O1, UniProt Q9KLJ3, C113A); format: binding; conditions: for Binding sites/molecule (Stoichiometry): pH 7.5

SMILES: CCCCCCCC(=O)SCCNC(=O)CCNC(=O)[C@H](O)C(C)(C)COP(=O)(O)OP(=O)(O)OC[C@H]1O[C@@H](n2cnc3c(N)ncnc32)[C@H](O)[C@@H]1OP(=O)(O)O [Octanoyl-CoA]
- Reaction rate relative to that of acetyl-CoA [1]: lower than 20%
- Hill coefficient n [2]: 1.8±0.2
- Kd [2]: 24.2 ± 2.2 µM
- Vmax (maximum activity) [2]: 18.0±1.1 μmol∙min^−1∙μmol^−1
- Binding sites/molecule (Stoichiometry) [3]: 1
- ΔH [3]: -3.414 kcal/mol
- ΔS [3]: 4.43 cal∙mol^−1∙K^−1
- ΔH [4]: -12.67 kcal/mol
- ΔS [4]: −22.30 cal∙mol^−1∙K^−1
- Binding sites/molecule (Stoichiometry) [4]: 0.90 ± 0.01

SMILES: CC(C)C(=O)SCCNC(=O)CCNC(=O)[C@H](O)C(C)(C)COP(=O)(O)OP(=O)(O)OC[C@H]1O[C@@H](n2cnc3c(N)ncnc32)[C@H](O)[C@@H]1OP(=O)(O)O [Isobutyryl-CoA]
- ΔH [4]: -8.57 kcal/mol
- ΔS [4]: −13.00 cal∙mol^−1∙K^−1
- Binding sites/molecule (Stoichiometry) [4]: 0.77 ± 0.18

SMILES: CC(C)CC(=O)SCCNC(=O)CCNC(=O)[C@H](O)C(C)(C)COP(=O)(O)OP(=O)(O)OC[C@H]1O[C@@H](n2cnc3c(N)ncnc32)[C@H](O)[C@@H]1OP(=O)(O)O [Isovaleryl-CoA]
- Reaction rate relative to that of acetyl-CoA [1]: lower than 20%
- ΔH [4]: -9.347 kcal/mol
- ΔS [4]: −16.20 cal∙mol^−1∙K^−1
- Binding sites/molecule (Stoichiometry) [4]: 0.74 ± 0.03

SMILES: CCCCCCCCCC(=O)SCCNC(=O)CCNC(=O)[C@H](O)C(C)(C)COP(=O)(O)OP(=O)(O)OC[C@H]1O[C@@H](n2cnc3c(N)ncnc32)[C@H](O)[C@@H]1OP(=O)(O)O [Decanoyl-CoA]
- Binding sites/molecule (Stoichiometry) [3]: 1
- ΔH [3]: -11.68 kcal/mol
- ΔS [3]: −25.30 cal∙mol^−1∙K^−1
- ΔH [4]: -7.457 kcal/mol
- ΔS [4]: −4.24 cal∙mol^−1∙K^−1
- Binding sites/molecule (Stoichiometry) [4]: 1.36 ± 0.01

SMILES: CCCCCC(=O)SCCNC(=O)CCNC(=O)[C@H](O)C(C)(C)COP(=O)(O)OP(=O)(O)OC[C@H]1O[C@@H](n2cnc3c(N)ncnc32)[C@H](O)[C@@H]1OP(=O)(O)O [Hexanoyl-CoA]
- Reaction rate relative to that of acetyl-CoA [1]: lower than 20%
- Binding sites/molecule (Stoichiometry) [3]: 1
- ΔH [3]: -1.847 kcal/mol
- ΔS [3]: 8.50 cal∙mol^−1∙K^−1
- ΔH [4]: -11.78 kcal/mol
- ΔS [4]: −22.10 cal∙mol^−1∙K^−1
- Binding sites/molecule (Stoichiometry) [4]: 0.878 ± 0.004

SMILES: CCCCCCCCCCCC(=O)SCCNC(=O)CCNC(=O)[C@H](O)C(C)(C)COP(=O)(O)OP(=O)(O)OC[C@H]1O[C@@H](n2cnc3c(N)ncnc32)[C@H](O)[C@@H]1OP(=O)(O)O [Lauroyl-CoA]
- ΔH [4]: -6.563 kcal/mol
- ΔS [4]: −4.60 cal∙mol^−1∙K^−1
- Binding sites/molecule (Stoichiometry) [4]: 1.38 ± 0.02

SMILES: CC(=O)SCCNC(=O)CCNC(=O)[C@H](O)C(C)(C)COP(=O)(O)OP(=O)(O)OC[C@H]1O[C@@H](n2cnc3c(N)ncnc32)[C@H](O)[C@@H]1OP(=O)(O)O [Acetyl-CoA]
- Hill coefficient n [1]: 1.6±0.2
- Kd [1]: 21.2 ± 2.9 µM
- Vmax (maximum activity) [1]: 14.0±1.1 μmol∙min^−1∙μmol^−1
- ΔH [4]: -14.49 kcal/mol
- ΔS [4]: −34.70 cal∙mol^−1∙K^−1
- Binding sites/molecule (Stoichiometry) [4]: 0.69 ± 0.05

SMILES: CCCC(=O)SCCNC(=O)CCNC(=O)[C@H](O)C(C)(C)COP(=O)(O)OP(=O)(O)OC[C@H]1O[C@@H](n2cnc3c(N)ncnc32)[C@H](O)[C@@H]1OP(=O)(O)O [Butyryl-CoA]
- ΔH [4]: -8.259 kcal/mol
- ΔS [4]: −12.00 cal∙mol^−1∙K^−1
- Binding sites/molecule (Stoichiometry) [4]: 0.87 ± 0.03
